Data published in patent US20170088546A1 (priority 2014, published 2017).
Like-named read-outs stand apart in the source and are kept apart here.

Legend:
[1] = target: Smurf-1 (Homo sapiens, UniProt Q9HCE7); assay: biochemical; assay type: biochemical; details: biochemical autoubiquitinylation TR-FRET, 45 min incubation, 8-point dose-response 3 nM to 10 uM
Description: (§1) To determine the HECT E3 ligase selectivity of the compounds, a panel of biochemical HECT E3 ligase autoubiquitinylation assays was employed (Smurf-1, Smurf-2, WWP1, WWP2, ITCH, Nedd4, Nedd4L and E6AP). The conjugation of ubiquitin to a protein substrate is a multistep process. In an initial ATP-requiring step, a thioester bond is formed between the carboxyl terminus of ubiquitin and an internal cystein residue of the ubiquitin-activating enzyme (E1). Activated ubiquitin is then transferred to a specific cystein residue of an ubiquitin-conjugating enzyme (E2). E2s donate ubiquitin to a HECT E3 ligase (E3) from which it is transferred to the substrate protein. HECT E3 ligases can auto-ubiquitinylate. This event is detected in the TR-FRET (Time-Resolved Fluorescence Resonance Energy Transfer) assay used in this panel. The reaction mix contains E1, E2, tagged-E3, biotin-conjugated ubiquitin, the compound and ATP in a suitable buffer and is incubated for 45 minutes to allow auto-ubiquitinylation of the E3 ligase. To measure the extent of ubiquitinylated E3 ligase by TR-FRET, the donor fluorophore Europium cryptate (Eu3+ cryptate), conjugated to streptavidin which subsequently binds to biotinylated ubiquitin, and the modified allophycocyanin XL665 (HTRF® primary acceptor fluorophore) coupled to a tag-specific antibody (HA, His or GST), which recognizes the respective E3 ligase fusion proteins, are added after the reaction is complete. When these two fluorophores are brought together by a biomolecular interaction (in this case ubiquitinylation of the E3 ligase), a portion of the energy captured by the Cryptate during excitation is released through fluorescence emission at 620 nm, while the remaining energy is transferred to XL665. This energy is then released by XL665 as specific fluorescence at 665 nm. Light at 665 nm is emitted only through FRET with Europium.
(§2) Test and reference compounds are prepared at 180×[final] in 90% DMSO, and diluted 1:3 in 90% DMSO.
(§3) For the biochemical assay panel, 50 nl of the test compounds, reference compounds and buffer/DMSO control are transferred to the respective wells of a 384-well white GREINER “SMALL VOLUME” PS plate. The assay panel is run at room temperature on a Biomek FX liquid handling workstation. To the assay plates containing 50 nl compound or control solutions in 90% DMSO, 4.5 ul of E3 ligase solution were added per well, followed by 4.5 ul of the pre-incubated E1/E2/Ub mix or the pre-diluted ubiquitin (LOW control). Plates are shaken vigorously after each addition. In this assay the compound concentrations range from 3 nM to 10 uM in an 8-point dose-response curve.
(§4) After an incubation time of 45 min in the dark, the plates are transferred into the Pherastar fluorescence reader to measure the TR-FRET signal.

[2] = target: Smurf-2 (Homo sapiens, UniProt Q9HAU4); assay: HECT E3 ligase autoubiquitinylation TR-FRET assay, Smurf-2; assay type: biochemical
Description: as §1, §2, §3, §4

[3] = biochemical autoubiquitinylation TR-FRET, 45 min incubation, 8-point dose-response 3 nM to 10 uM, read-out: Smurf-2/IC50

Smurf-1, sequence (Q9HCE7 whole entry): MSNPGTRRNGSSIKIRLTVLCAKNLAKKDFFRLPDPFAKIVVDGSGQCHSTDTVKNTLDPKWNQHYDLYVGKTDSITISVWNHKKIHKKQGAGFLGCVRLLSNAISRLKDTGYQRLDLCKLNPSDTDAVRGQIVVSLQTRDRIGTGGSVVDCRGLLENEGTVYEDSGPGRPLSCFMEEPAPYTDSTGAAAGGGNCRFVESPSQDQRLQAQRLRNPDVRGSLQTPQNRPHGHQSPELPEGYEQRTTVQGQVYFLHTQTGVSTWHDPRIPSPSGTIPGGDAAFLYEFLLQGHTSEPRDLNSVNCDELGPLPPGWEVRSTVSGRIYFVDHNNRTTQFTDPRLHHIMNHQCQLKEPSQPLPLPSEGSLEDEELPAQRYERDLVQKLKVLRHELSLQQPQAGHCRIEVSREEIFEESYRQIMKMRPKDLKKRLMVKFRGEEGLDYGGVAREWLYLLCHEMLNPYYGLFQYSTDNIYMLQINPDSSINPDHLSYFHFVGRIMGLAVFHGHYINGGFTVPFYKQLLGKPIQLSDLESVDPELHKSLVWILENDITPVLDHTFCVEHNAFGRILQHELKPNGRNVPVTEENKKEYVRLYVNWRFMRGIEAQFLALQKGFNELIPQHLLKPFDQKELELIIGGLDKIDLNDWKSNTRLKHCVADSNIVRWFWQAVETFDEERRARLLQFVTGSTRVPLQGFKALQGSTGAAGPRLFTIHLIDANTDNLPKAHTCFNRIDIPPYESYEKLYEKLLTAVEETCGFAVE
Smurf-2, sequence (Q9HAU4 whole entry, species assumed): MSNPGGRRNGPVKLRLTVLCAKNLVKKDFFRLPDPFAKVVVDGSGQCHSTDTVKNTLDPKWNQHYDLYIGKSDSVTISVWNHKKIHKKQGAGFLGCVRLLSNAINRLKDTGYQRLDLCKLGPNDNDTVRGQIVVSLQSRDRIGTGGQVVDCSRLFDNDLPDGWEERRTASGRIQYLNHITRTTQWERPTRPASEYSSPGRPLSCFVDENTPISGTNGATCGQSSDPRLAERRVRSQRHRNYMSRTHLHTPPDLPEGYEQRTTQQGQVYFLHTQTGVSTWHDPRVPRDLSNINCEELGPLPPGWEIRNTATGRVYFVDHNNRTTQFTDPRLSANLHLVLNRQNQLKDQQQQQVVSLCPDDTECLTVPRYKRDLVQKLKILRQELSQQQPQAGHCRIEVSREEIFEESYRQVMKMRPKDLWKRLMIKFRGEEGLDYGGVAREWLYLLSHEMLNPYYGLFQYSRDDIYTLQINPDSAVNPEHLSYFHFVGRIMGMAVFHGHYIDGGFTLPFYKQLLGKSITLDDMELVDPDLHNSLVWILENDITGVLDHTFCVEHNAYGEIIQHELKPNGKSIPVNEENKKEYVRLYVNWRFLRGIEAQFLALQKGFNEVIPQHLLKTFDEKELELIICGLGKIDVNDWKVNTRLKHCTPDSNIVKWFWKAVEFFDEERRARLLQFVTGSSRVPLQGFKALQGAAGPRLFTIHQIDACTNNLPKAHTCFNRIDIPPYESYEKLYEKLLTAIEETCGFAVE

Row | Compound | IC50 [1] [nM] | IC50 [2, 3] [nM] | IC50 [2] [nM]
1 | Cc1c(NC(=O)c2noc3c2CCc2cc(CC(C)C)ccc2-3)c(=O)n(-c2ccccc2)n1C [Example 1, N-(1,5-Dimethyl-3-oxo-2-phenyl-2,3-dihydro-1H-pyrazol-4-yl)-7-isobutyl-4,5-dihydronaphtho[2,1-d]isoxazole-3-carboxamide] | 240 | 5600 | –
2 | COc1ccc2c(c1)CCCc1c(C(=O)Nc3c(C)n(C)n(-c4ccc(F)cc4)c3=O)noc1-2 [Example 2, N-(2-(4-Fluorophenyl)-1,5-dimethyl-3-oxo-2,3-dihydro-1H-pyrazol-4-yl)-8-methoxy-5,6-dihydro-4H-benzo[3,4]cyclohepta[1,2-d]isoxazole-3-carboxamide] | 410 | 8550 | –
3 | Cc1c(NC(=O)c2noc3c2CCCc2cc(OC(F)(F)F)ccc2-3)c(=O)n(-c2ccccc2F)n1C [Example 3, N-(2-(2-Fluorophenyl)-1,5-dimethyl-3-oxo-2,3-dihydro-1H-pyrazol-4-yl)-8-(trifluoromethoxy)-5,6-dihydro-4H-benzo[3,4]cyclohepta[1,2-d]isoxazole-3-carboxamide] | 17 | 830 | –
4 | Cc1c(NC(=O)c2noc3c2CCSc2cc(OC(F)(F)F)ccc2-3)c(=O)n(C2CCCCC2)n1C [Example 4, N-(2-Cyclohexyl-1,5-dimethyl-3-oxo-2,3-dihydro-1H-pyrazol-4-yl)-8-(trifluoromethoxy)-4,5-dihydrobenzo[6,7]thiepino[4,5-d]isoxazole-3-carboxamide] | 2.6 | 725 | –
5 | COc1ccc2c(c1)CCCCc1c(C(=O)Nc3c(C)n(C)n(C4CCCCC4)c3=O)noc1-2 [Example 5, N-(2-Cyclohexyl-1,5-dimethyl-3-oxo-2,3-dihydro-1H-pyrazol-4-yl)-9-methoxy-4,5,6,7-tetrahydrobenzo[3,4]cycloocta[1,2-d]isoxazole-3-carboxamide] | 91.8 | 8350 | –
6 | CCc1ccc2c(c1)CCc1c(C(=O)Nc3c(C)n(C)n(-c4ccccc4)c3=O)noc1-2 [Example 7, N-(1,5-dimethyl-3-oxo-2-phenyl-2,3-dihydro-1H-pyrazol-4-yl)-7-ethyl-4,5-dihydronaphtho[2,1-d]isoxazole-3-carboxamide] | 568 | – | > 10000
7 | Cc1ccc(-n2c(=O)c(NC(=O)c3noc4c3CCc3cc(OC(C)C)ccc3-4)c(C)n2C)cc1 [Example 11, N-(1,5-dimethyl-3-oxo-2-(p-tolyl)-2,3-dihydro-1H-pyrazol-4-yl)-7-isopropoxy-4,5-dihydronaphtho[2,1-d]isoxazole-3-carboxamide] | 1420 | – | > 10000
8 | CCc1ccc2c(c1)CCCc1c(C(=O)Nc3c(C)n(C)n(-c4ccc(F)cc4)c3=O)noc1-2 [Example 13, 8-ethyl-N-(2-(4-fluorophenyl)-1,5-dimethyl-3-oxo-2,3-dihydro-1H-pyrazol-4-yl)-5,6-dihydro-4H-benzo[3,4]cyclohepta[1,2-d]isoxazole-3-carboxamide] | 272 | 7850 | –
9 | COc1ccc2c(c1)CCCc1c(C(=O)Nc3c(C)n(C)n(-c4ccc(C)cc4C)c3=O)noc1-2 [Example 22, N-(2-(2,4-dimethylphenyl)-1,5-dimethyl-3-oxo-2,3-dihydro-1H-pyrazol-4-yl)-8-methoxy-5,6-dihydro-4H-benzo[3,4]cyclohepta[1,2-d]isoxazole-3-carboxamide] | 495 | – | > 10000
10 | COc1ccc2c(c1)CCCc1c(C(=O)Nc3c(C)n(C)n(-c4ccccc4Cl)c3=O)noc1-2 [Example 27, N-(2-(2-chlorophenyl)-1,5-dimethyl-3-oxo-2,3-dihydro-1H-pyrazol-4-yl)-8-methoxy-5,6-dihydro-4H-benzo[3,4]cyclohepta[1,2-d]isoxazole-3-carboxamide] | 125 | 5800 | –
11 | COc1ccc2c(c1)CCCc1c(C(=O)Nc3c(C)n(C)n(-c4cccc(Cl)c4)c3=O)noc1-2 [Example 28, N-(2-(3-chlorophenyl)-1,5-dimethyl-3-oxo-2,3-dihydro-1H-pyrazol-4-yl)-8-methoxy-5,6-dihydro-4H-benzo[3,4]cyclohepta[1,2-d]isoxazole-3-carboxamide] | 660 | – | > 10000
12 | COc1ccc2c(c1)CCCc1c(C(=O)Nc3c(C)n(C)n(-c4ccc(Cl)cc4)c3=O)noc1-2 [Example 29, N-(2-(4-chlorophenyl)-1,5-dimethyl-3-oxo-2,3-dihydro-1H-pyrazol-4-yl)-8-methoxy-5,6-dihydro-4H-benzo[3,4]cyclohepta[1,2-d]isoxazole-3-carboxamide] | 1060 | – | > 10000
13 | CCn1c(C)c(NC(=O)c2noc3c2CCCc2cc(OC)ccc2-3)c(=O)n1-c1ccccc1Cl [Example 30, N-(2-(2-chlorophenyl)-1-ethyl-5-methyl-3-oxo-2,3-dihydro-1H-pyrazol-4-yl)-8-methoxy-5,6-dihydro-4H-benzo[3,4]cyclohepta[1,2-d]isoxazole-3-carboxamide] | 680 | 6850 | –
14 | COc1ccc2c(c1)CCCc1c(C(=O)Nc3c(C)n(C)n(Cc4ccccc4)c3=O)noc1-2 [Example 32, N-(2-benzyl-1,5-dimethyl-3-oxo-2,3-dihydro-1H-pyrazol-4-yl)-8-methoxy-5,6-dihydro-4H-benzo[3,4]cyclohepta[1,2-d]isoxazole-3-carboxamide] | 695 | – | > 10000
15 | COc1ccc2c(c1)CCCc1c(C(=O)Nc3c(C)n(C)n(C4CCCC4)c3=O)noc1-2 [Example 34, N-(2-cyclopentyl-1,5-dimethyl-3-oxo-2,3-dihydro-1H-pyrazol-4-yl)-8-methoxy-5,6-dihydro-4H-benzo[3,4]cyclohepta[1,2-d]isoxazole-3-carboxamide] | 29.2 | 9500 | –
16 | COc1ccc2c(c1)CCCc1c(C(=O)Nc3c(C)n(C)n(C4CCCCC4)c3=O)noc1-2 [Example 35, N-(2-cyclohexyl-1,5-dimethyl-3-oxo-2,3-dihydro-1H-pyrazol-4-yl)-8-methoxy-5,6-dihydro-4H-benzo[3,4]cyclohepta[1,2-d]isoxazole-3-carboxamide] | 5.9 | 1050 | –
17 | COc1ccc2c(c1)CCCc1c(C(=O)Nc3c(C)n(C)n(CC4CCCCC4)c3=O)noc1-2 [Example 37, N-(2-(cyclohexylmethyl)-1,5-dimethyl-3-oxo-2,3-dihydro-1H-pyrazol-4-yl)-8-methoxy-5,6-dihydro-4H-benzo[3,4]cyclohepta[1,2-d]isoxazole-3-carboxamide] | 1040 | – | > 10000
18 | COc1ccc2c(c1)CCCc1c(C(=O)Nc3c(C(F)(F)F)n(C)n(-c4ccccc4)c3=O)noc1-2 [Example 38, 8-methoxy-N-(1-methyl-3-oxo-2-phenyl-5-(trifluoromethyl)-2,3-dihydro-1H-pyrazol-4-yl)-5,6-dihydro-4H-benzo[3,4]cyclohepta[1,2-d]isoxazole-3-carboxamide] | 865 | – | > 10000
19 | Cc1c(NC(=O)c2noc3c2CCCc2cc(OC(F)(F)F)ccc2-3)c(=O)n(-c2ccccc2)n1C [Example 39, N-(1,5-dimethyl-3-oxo-2-phenyl-2,3-dihydro-1H-pyrazol-4-yl)-8-(trifluoromethoxy)-5,6-dihydro-4H-benzo[3,4]cyclohepta[1,2-d]isoxazole-3-carboxamide] | 200 | 5550 | –
20 | Cc1c(NC(=O)c2noc3c2CCCc2cc(OC(F)(F)F)ccc2-3)c(=O)n(Cc2ccccc2F)n1C [Example 43, N-(2-(2-fluorobenzyl)-1,5-dimethyl-3-oxo-2,3-dihydro-1H-pyrazol-4-yl)-8-(trifluoromethoxy)-5,6-dihydro-4H-benzo[3,4]cyclohepta[1,2-d]isoxazole-3-carboxamide] | 58 | – | –
21 | COc1ccc2c(c1)CCCc1c(C(=O)Nc3c(C)n(C)n(Cc4ccc(F)cc4)c3=O)noc1-2 [Example 57, N-(2-(4-fluorobenzyl)-1,5-dimethyl-3-oxo-2,3-dihydro-1H-pyrazol-4-yl)-8-methoxy-5,6-dihydro-4H-benzo[3,4]cyclohepta[1,2-d]isoxazole-3-carboxamide] | 2700 | – | –
